The values that follow are results of earlier work, collected in patent publication US12042505B2, “Compositions and methods for treating dry eye” (priority 2021, dated 2024).

For the data set the following is noted: for side effects: background statement on marketed drug.

On to `CC(C[N+](C)(C)C)OC(N)=O` (stereo not shown) [Bethanechol], for which the side effects result was “dizziness, drowsiness, lightheadedness, headache, nausea, vomiting, abdominal cramps/pain, diarrhea, increased salivation or urination, headache, slow heart rate followed by fast heart rate, and sweating”. In addition, the hydrolysis by cholinesterase entry (background statement) is “not hydrolyzed by cholinesterase”.
Take `C[N+](C)(C)CCOC(N)=O` [Carbachol]: the side effects entry is “miosis that can diminish ocular focus”. For the same molecule, under “background statement”, the “absorption in the gastrointestinal tract” value was “not well absorbed in the gastrointestinal tract”.
For `CC1OC2(CS1)CN1CCC2CC1` (stereo not shown) [Cevimeline], the side effects result is reported as “bladder pain, nausea, vomiting, diarrhea, sweating, rash, headache, runny nose, drowsiness, hot flashes, blurred vision, difficulty sleeping”.
For the molecule `CC[C@@H]1C(=O)OC[C@@H]1Cc1cncn1C` [Pilocarpine], the side effects entry is “miosis, blurred vision, pupillary spasms; topically, it also results in burning and stinging”.
As to `CN(C)C(=O)Oc1ccc[n+](C)c1` [Pyridostigmine], the side effects result was “dizziness, drowsiness, lightheadedness, headache, nausea, vomiting, abdominal cramps/pain, diarrhea, increased salivation or urination, headache, slow heart rate followed by fast heart rate, and sweating”.
